Measured values from ChEMBL document CHEMBL3882725, “Indazole derivatives as JNK inhibitors and compositions and methods related thereto” (2002).
pIC50: −log10 of the molar value.

biological target: Mitogen-activated protein kinase 9 (Homo sapiens, UniProt P45984); assay: Inhibition of His6-tagged JNK2 (unknown origin) assessed as reduction in c-Jun phosphorylation using GST-c-Jun (1 to 79 residues) and [gamma32P]ATP incubated for 1 hr by scintillation counting assay
Sequence (P45984 whole entry, the tested form may be a part): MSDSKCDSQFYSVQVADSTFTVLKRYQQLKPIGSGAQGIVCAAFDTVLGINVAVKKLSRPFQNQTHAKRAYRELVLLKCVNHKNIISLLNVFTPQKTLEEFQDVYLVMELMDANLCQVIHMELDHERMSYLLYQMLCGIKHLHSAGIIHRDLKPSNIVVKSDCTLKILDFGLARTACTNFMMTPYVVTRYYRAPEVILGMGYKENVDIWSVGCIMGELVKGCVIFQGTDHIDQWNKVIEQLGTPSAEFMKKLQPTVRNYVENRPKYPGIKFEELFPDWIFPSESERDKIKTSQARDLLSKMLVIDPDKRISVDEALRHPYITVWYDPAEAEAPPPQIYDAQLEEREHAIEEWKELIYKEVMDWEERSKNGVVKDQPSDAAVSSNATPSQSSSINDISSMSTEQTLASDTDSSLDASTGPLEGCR

Structure (SMILES)	pIC50
O=C(Nc1ccc(-c2n[nH]c3ccc(-c4ncn[nH]4)cc23)cc1)c1ccco1	5.00 to 6.00
Cc1ccccc1C(=O)Nc1ccc2[nH]nc(-c3ccc(F)cc3)c2c1	5.00 to 6.00
CC(O)CNC(=O)c1ccc2[nH]nc(-c3ccc(F)cc3)c2c1 (centres undefined)	5.00 to 6.00
c1cc(OCCN2CCOCC2)cc(-c2n[nH]c3ccc(-c4nnn[nH]4)cc23)c1	5.00 to 6.30
O=C(NC1Cc2ccccc2C1)c1cccc(-c2n[nH]c3ccc(-c4ncn[nH]4)cc23)c1	5.00 to 6.30
Fc1ccc(-c2n[nH]c3ccc(-c4nn[nH]n4)cc23)cc1	5.00 to 6.30
O=C(Nc1cccc(-c2n[nH]c3ccc(-c4nc[nH]n4)cc23)c1)c1ccc(Cl)cc1	5.00 to 6.00
Cc1nnc(-c2ccc3[nH]nc(-c4ccc(F)cc4)c3c2)o1	5.00 to 6.00
FC(F)(F)c1ccc(-c2n[nH]c3ccc(-c4ncn[nH]4)cc23)cc1	5.00 to 6.00
CC(=O)N1CCN(Cc2nnc(-c3ccc4[nH]nc(-c5ccc(F)cc5)c4c3)[nH]2)CC1	5.00 to 6.00
O=C(O)c1cccc(-c2n[nH]c3ccc(-c4nc[nH]n4)cc23)c1	5.00 to 6.00
CN(C)Cc1nc(-c2ccc3[nH]nc(-c4cccc(NC(=O)CC(C)(C)C)c4)c3c2)n[nH]1	5.00 to 6.30
O=C(Nc1ccc2[nH]nc(-c3ccccc3)c2c1)c1ccccn1	5.00 to 6.00
NC(=O)c1ccc2[nH]nc(-c3ccoc3)c2c1	5.00 to 6.00
O=C(Nc1ccc2[nH]nc(-c3ccc(F)cc3)c2c1)c1ccncc1	5.00 to 6.00
O=C(O)c1ccc(C(=O)Nc2ccc3[nH]nc(-c4ccccc4)c3c2)cc1	5.00 to 6.00
CC(C)(NC(=O)c1cccc(-c2n[nH]c3ccc(-c4ncn[nH]4)cc23)c1)c1ccccc1	5.00 to 6.30
O=C(O)c1ccc2[nH]nc(-c3cc4ccccc4s3)c2c1	5.00 to 6.00
CN(C)Cc1nc(-c2ccc3[nH]nc(-c4cccc(NC(=O)c5cccnc5)c4)c3c2)n[nH]1	5.00 to 6.30
CN(C)CCOc1ccc(-c2n[nH]c3ccc(-c4ncn[nH]4)cc23)cc1	5.00 to 6.00
O=C(Nc1cccc(-c2n[nH]c3ccc(-c4nc[nH]n4)cc23)c1)c1ccccn1	5.00 to 6.30
O=C(Nc1cccc(-c2n[nH]c3ccc(-c4nc[nH]n4)cc23)c1)C1CC1	5.00 to 6.00
c1cc(-c2n[nH]c3ccc(-c4nnn[nH]4)cc23)ccn1	5.00 to 6.30
c1csc(-c2n[nH]c3ccc(-c4nnn[nH]4)cc23)c1	5.00 to 6.30
COc1ccc(-c2n[nH]c3ccc(N)cc23)cc1	≥ 5.00
NC(=O)c1ccc2[nH]nc(-c3cccc(NC(=O)Cc4ccccc4F)c3)c2c1	5.00 to 6.30

Structure (SMILES)	pIC50
Cc1ccc2[nH]nc(-c3ccc(F)cc3)c2c1	≥ 5.00
O=C(N[C@H]1C[C@@H]1c1ccccc1)c1cccc(-c2n[nH]c3ccc(-c4nc[nH]n4)cc23)c1	5.00 to 6.30
c1ccc2ncc(-c3n[nH]c4ccc(-c5nc[nH]n5)cc34)cc2c1	5.00 to 6.00
Oc1ccc(-c2nnc(-c3ccc4[nH]nc(-c5ccc(F)cc5)c4c3)[nH]2)cc1	5.00 to 6.00
CN(C)Cc1n[nH]c(-c2ccc3[nH]nc(-c4cccc(C(=O)NC5Cc6ccccc6C5)c4)c3c2)n1	5.00 to 6.30
O=C(Nc1ccc(-c2n[nH]c3ccc(-c4nc[nH]n4)cc23)cc1)c1cccnc1	5.00 to 6.00
COc1ccc2cc(-c3n[nH]c4ccc(-c5n[nH]c(CN(C)C)n5)cc34)ccc2c1	5.00 to 6.00
CCOC(=O)CCc1ccc2[nH]nc(-c3ccc(F)cc3)c2c1	≥ 5.00
O=C(c1ccc2[nH]nc(-c3ccc(F)cc3)c2c1)N1CCCC1	≥ 5.00
CS(=O)(=O)Nc1ccc(-c2n[nH]c3ccc(-c4nc[nH]n4)cc23)cc1	5.00 to 6.00
O=C(Nc1cccc2c1CCCC2)c1cccc(-c2n[nH]c3ccc(-c4nc[nH]n4)cc23)c1	5.00 to 6.30
O=C(Cc1ccccc1)c1ccc2[nH]nc(-c3ccc(F)cc3)c2c1	≥ 5.00
c1cc2[nH]nc(-c3ccc4c(c3)OCCO4)c2cc1-c1n[nH]c(CN2CCCC2)n1	5.00 to 6.00
C(=C\c1n[nH]c2ccc(-c3nnn[nH]3)cc12)/c1ccccc1	5.00 to 6.30
O=C(Nc1cccc(O)c1)c1ccc2[nH]nc(-c3ccc(F)cc3)c2c1	5.00 to 6.00
COC(=O)c1ccc(NC(=O)c2ccc3[nH]nc(-c4ccc(F)cc4)c3c2)cc1	≥ 5.00
O=C(Nc1cccc(-c2n[nH]c3ccc(-c4nc[nH]n4)cc23)c1)c1ccco1	5.00 to 6.30
O=C(Nc1cccc(-c2n[nH]c3ccc(-c4nc[nH]n4)cc23)c1)C(O)c1ccccc1 (centres undefined)	5.00 to 6.30
Clc1ccccc1-c1n[nH]c2ccc(-c3ncn[nH]3)cc12	5.00 to 6.00
O=C(Nc1ccc(F)cc1)c1cccc(-c2n[nH]c3ccc(-c4nc[nH]n4)cc23)c1	5.00 to 6.30
O=C1CCCN1CCOc1cccc(-c2n[nH]c3ccc(-c4ncn[nH]4)cc23)c1	5.00 to 6.00
O=C(N[C@@H]1CCc2ccccc21)c1cccc(-c2n[nH]c3ccc(-c4ncn[nH]4)cc23)c1	5.00 to 6.30
O=C(Nc1ccc2[nH]nc(-c3ccc(F)cc3)c2c1)c1ccco1	5.00 to 6.00
O=C(NC1CCC1)c1cccc(-c2n[nH]c3ccc(-c4nc[nH]n4)cc23)c1	5.00 to 6.30
O=C(Nc1ccncc1)c1ccc2[nH]nc(-c3ccc(F)cc3)c2c1	5.00 to 6.00
Cc1ccc2[nH]nc(-c3ccccc3)c2c1	≥ 5.00

Structure (SMILES)	pIC50
CC(C)COc1ccc(-c2n[nH]c3ccc(-c4nnn[nH]4)cc23)cc1	5.00 to 6.00
CC(O)Cc1nnc(-c2ccc3[nH]nc(-c4ccc(F)cc4)c3c2)[nH]1 (stereo in doubt; form 2)	5.00 to 6.00
COCCNC(=O)c1cccc(-c2n[nH]c3ccc(-c4nc[nH]n4)cc23)c1	5.00 to 6.30
COc1ccccc1-c1n[nH]c2ccc(-c3nnn[nH]3)cc12	5.00 to 6.00
O=C(NCc1cccnc1)c1ccc2[nH]nc(-c3ccc(F)cc3)c2c1	5.00 to 6.00
c1ccc2oc(-c3n[nH]c4ccc(-c5nc[nH]n5)cc34)cc2c1	5.00 to 6.30
NCCOc1cccc(-c2n[nH]c3ccc(-c4ncn[nH]4)cc23)c1	≥ 5.00
CC(C)CC(=O)Nc1cccc(-c2n[nH]c3ccc(-c4nc[nH]n4)cc23)c1	5.00 to 6.30
CC(=O)Nc1ccc2[nH]nc(-c3ccccc3)c2c1	5.00 to 6.00
Fc1ccc(-c2n[nH]c3ccc(-c4nc(-c5ccccc5)n[nH]4)cc23)cc1	5.00 to 6.00
O=C(Nc1cccc(-c2n[nH]c3ccc(-c4nc[nH]n4)cc23)c1)[C@H](O)c1ccccc1	5.00 to 6.30
O=C(O)C1CCN(C(=O)c2ccc3[nH]nc(-c4ccc(F)cc4)c3c2)CC1	≥ 5.00
COc1ccc2cc(-c3n[nH]c4ccc(C(N)=O)cc34)ccc2c1	5.00 to 6.00
CCOC(=O)Cc1n[nH]c(-c2ccc3[nH]nc(-c4ccc(F)cc4)c3c2)n1	5.00 to 6.00
c1cc(OCCN2CCCCCC2)cc(-c2n[nH]c3ccc(-c4ncn[nH]4)cc23)c1	5.00 to 6.00
COc1ccc(-c2n[nH]c3ccc(C(N)=O)cc23)cc1OC	5.00 to 6.00
O=[N+]([O-])c1ccc2[nH]nc(-c3cccc(C(F)(F)F)c3)c2c1	≥ 5.00
CN(C)C(=O)c1ccc2[nH]nc(-c3ccc(F)cc3)c2c1	≥ 5.00
Fc1ccc(-c2n[nH]c3ccc(CCc4ccccn4)cc23)cc1	≥ 5.00
c1n[nH]c(-c2ccc3[nH]nc(-c4ccoc4)c3c2)n1	5.00 to 6.00
CS(=O)(=O)c1ccc(-c2n[nH]c3ccc(-c4ncn[nH]4)cc23)cc1	5.00 to 6.00
NC(=O)c1ccc2[nH]nc(-c3cccc(NC(=O)Cc4ccc(C(F)(F)F)cc4)c3)c2c1	5.00 to 6.00
CN(C)CCCOc1ccc(-c2n[nH]c3ccc(-c4nnn[nH]4)cc23)cc1	5.00 to 6.30
COCCNc1cccc(-c2n[nH]c3ccc(C(N)=O)cc23)c1	5.00 to 6.00
Fc1ccc(-c2n[nH]c3ccc(-c4cc[nH]n4)cc23)cc1	5.00 to 6.00
O=C(Nc1cccc(-c2n[nH]c3ccc(-c4nc[nH]n4)cc23)c1)C(=O)c1c[nH]c2ccccc12	5.00 to 6.00

Structure (SMILES)	pIC50
CN(C)CCOc1cccc(-c2n[nH]c3ccc(-c4ncn[nH]4)cc23)c1	5.00 to 6.00
NC(=O)c1ccc2[nH]nc(-c3cccc(NC(=O)Cc4ccc(Cl)cc4Cl)c3)c2c1	5.00 to 6.00
O=C(Nc1cccc(-c2n[nH]c3ccc(-c4nc[nH]n4)cc23)c1)C1CCCC1	5.00 to 6.00
Oc1ccccc1-c1n[nH]c2ccc(-c3nnn[nH]3)cc12	5.00 to 6.00
NC(=O)c1ccc2[nH]nc(-c3cccc(NC(=O)c4ccco4)c3)c2c1	5.00 to 6.30
Clc1ccc(-c2n[nH]c3ccc(-c4nc[nH]n4)cc23)cc1Cl	5.00 to 6.00
NC(=O)c1ccc2[nH]nc(-c3cccc(NC(=O)CCc4ccccc4)c3)c2c1	5.00 to 6.00
NC(=O)c1ccc2[nH]nc(-c3ccc(F)cc3)c2c1	5.00 to 6.00
CC(C)c1cccc(-c2n[nH]c3ccc(C(N)=O)cc23)c1	≥ 5.00
Fc1ccc(-c2n[nH]c3ccc(-c4nc5ccccc5[nH]4)cc23)cc1	≥ 5.00
c1ccc2sc(-c3n[nH]c4ccc(-c5nn[nH]n5)cc34)cc2c1	5.00 to 6.30
O=C(NCCN1CCCCC1)c1cccc(-c2n[nH]c3ccc(-c4nc[nH]n4)cc23)c1	5.00 to 6.30
COC(=O)c1ccc2[nH]nc(-c3cc4ccccc4s3)c2c1	≥ 5.00
NC(=O)c1ccc2[nH]nc(-c3cccc(NC(=O)C4CC4)c3)c2c1	5.00 to 6.00
CCNc1ccc2[nH]nc(-c3ccc(F)cc3)c2c1	≥ 5.00
c1ccc2cc(-c3n[nH]c4ccc(-c5nnn[nH]5)cc34)ccc2c1	5.00 to 6.30
Clc1cccc(-c2n[nH]c3ccc(-c4ncn[nH]4)cc23)c1	5.00 to 6.00
CN(C)Cc1nc(-c2ccc3[nH]nc(-c4cccc(C(=O)N[C@@H]5CCc6ccccc65)c4)c3c2)n[nH]1	5.00 to 6.30
C(#Cc1n[nH]c2ccc(-c3nnn[nH]3)cc12)c1ccccc1	5.00 to 6.00
Oc1ccc(-c2n[nH]c3ccc(-c4ncn[nH]4)cc23)cc1	5.00 to 6.00
O=C(CCc1ccccc1)Nc1cccc(-c2n[nH]c3ccc(-c4nc[nH]n4)cc23)c1	5.00 to 6.30
CN(C)CCCNC(=O)c1ccc2[nH]nc(-c3cc4ccccc4o3)c2c1	5.00 to 6.00
NC(=O)c1ccc2[nH]nc(-c3cccc(NC(=O)Cc4ccc(F)cc4)c3)c2c1	5.00 to 6.30
CC(=O)Nc1cccc(-c2n[nH]c3ccc(-c4ncn[nH]4)cc23)c1	5.00 to 6.00
NC(=O)c1ccc2[nH]nc(-c3cccc(NC(=O)C4CCNCC4)c3)c2c1	5.00 to 6.00
COc1ccc2cc(-c3n[nH]c4ccc(-c5n[nH]c(CN6CCCC6)n5)cc34)ccc2c1	5.00 to 6.30
